Test results: US20090318544A1, “CRYSTALLINE FORM OF (2S)-(-)-N-(6-CHLORO-2,3-DIHYDRO-BENZO[1,4]DIOXIN-2-YLMETHYL)-SULFAMIDE” (priority 2008, published 2009)

Assays:
Type in all cases: physicochemical
[1] = TGA (Thermogravimetric Analysis) weight loss
Description: The weight loss for the sample was obtained using a TA Instruments TGA […] thermogravimetric calorimeter. The sample was analyzed as received and was program heated from ambient to 120° C. at 10° C./min under nitrogen purge.

[2] = DVS (Dynamic Vapor Sorption) cycling humidity, hygroscopicity; details: full cycle in step mode at 25° C., 0-90% RH in 10% RH increments
Description: (§1) A representative sample of crystalline form (IS-VI) was subjected to DVS (Dynamic Vapor Sorption) cycling humidity conditions to determine hydgroscopicity, as shown in FIG. 4. The sample was analyzed using a Surface Measurement System DVS-1 Dynamic Vapor Sorption System. The sample was analyzed full cycle in step mode at 25° C. from 0-90% RH in 10% RH increments. The equilibration conditions set were: dm/dt of 0.0007%/min, dm/dt window of 5 minutes, and minimum and maximum stages of 15 and 360 minutes. Data was collected in 1 minute intervals. Nitrogen was used as the carrier gas. The results from the DVS measurements indicate that crystalline form (IS-VI) is non-hygoscopic

[3] = Stability to temperature and humidity, concluded from DSC, TGA and DVS results; details: solid state; conclusion from the results above
Description: DSC (Differential Scanning Calorimetry) was measured for a representative sample of crystalline form (IS-VI), as shown in FIG. 2. DSC analysis of the sample was performed using a TA Instruments DSC Q1000 differential scanning calorimeter. The sample was analyzed as received in an open TA Instrument aluminum sample pan and was program heated from ambient to 120° C. at 10° C./min under nitrogen purge.
The weight loss for the sample was obtained using a TA Instruments TGA Q5000IR thermogravimetric calorimeter. The sample was analyzed as received and was program heated from ambient to 120° C. at 10° C./min under nitrogen purge.
as §1

SMILES: NS(=O)(=O)NC[C@H]1COc2cc(Cl)ccc2O1 [crystalline form (IS-VI), (2S)-(−)-N-(6-chloro-2,3-dihydro-benzo[1,4]dioxin-2-ylmethyl)-sulfamide]
- hydrate state indicated by TGA ([1]; ambient to 120° C. at 10° C./min under nitrogen purge): non-hydrate
- weight loss by TGA ([1]; heated from ambient to 120° C. at 10° C./min under nitrogen purge, ambient temperature up to and including melting): No weight loss was observed
- hygroscopicity by DVS [2]: non-hygoscopic
- stability to temperature and humidity [3]: exhibits stability to temperature and humidity
